Measured values as given in patent US20230000773A1, “NOVEL HEADGROUP LIPID COMPOUNDS AND COMPOSITIONS FOR INTRACELLULAR DELIVERY OF THERAPEUTIC AGENTS” (ModernaTX, Inc., priority 2019, published 2023).

What was measured:
[1] = Size and polydispersity index of nanoparticles comprising compounds of the disclosure; format: physicochemical; conditions: compound:DSPC:cholesterol:PEG 2 50:10:38:2 mol %
Text: Lipid nanoparticles (e.g., empty LNPs or loaded LNPs) may be characterized by a variety of methods. For example, microscopy (e.g., transmission electron microscopy or scanning electron microscopy) may be used to examine the morphology and size distribution of a nanoparticle composition. Dynamic light scattering or potentiometry (e.g., potentiometric titrations) may be used to measure zeta potentials. Dynamic light scattering may also be utilized to determine particle sizes. Instruments such as the Zetasizer Nano ZS (Malvern Instruments Ltd, Malvern, Worcestershire, UK) may also be used to measure multiple characteristics of a nanoparticle composition, such as particle size, polydispersity index, and zeta potential.
(§1) Nanoparticle compositions including a therapeutic and/or prophylactic can be optimized according to the selection of a compound according to Formula (I), (I-1), (A), (A-1), (A-1a), or (A-1b), the selection of additional lipids, the amount of each lipid in the lipid component, and the wt:wt ratio of the lipid component to the therapeutic and/or prophylactic. Nanoparticle compositions including DSPC as a phospholipid, cholesterol as a structural lipid, PEG 2 as a PEG lipid, and a compound according to Formula (I), (I-1), (A), (A-1), (A-1a), or (A-1b) were prepared. The ratios of the lipids were 50:10:38:2 mol % for the lipid according to Formula (I), (I-1), (A), (A-1), (A-1a), or (A-1b):DSPC:cholesterol:PEG 2. […]

serum protein ApoE = assay: ApoE binding affinity of nanoparticles (bead binding, flow cytometry)
Experimental: The ApoE binding affinity, i.e., the affinity of binding between nanoparticles comprising compounds of the disclosure and the serum protein ApoE, was determined by binding the nanoparticles to beads, then incubating them with known quantities of […]. The quantity of protein bound to the nanoparticle was then determined by flow cytometry.

hEPO mRNA = assay: hEPO expression in CD1-mice after intravenous administration of nanoparticles; format: in vivo; conditions: 6 h after intravenous administration, mRNA dose 0.5 mg/kg, N:P 3.4, compound:DSPC:cholesterol:PEG 2 50:10:38:2
Experimental: The expression of hEPO mRNA in CD1-mice was measured 6 h after intravenous administration of nanoparticles comprising a compound of the disclosure, DSPC, cholesterol, and PEG 2 in a ratio of 50:10:38:2. […] Each composition was dosed to 8 animals at an mRNA dose of 0.5 mg/kg.

[2] = Encapsulation efficiency (% EE), ribogreen; format: physicochemical; conditions: nanoparticles, compound:DSPC:cholesterol:PEG 2 50:10:38:2 mol %
Text: (§2) The efficiency of encapsulation of a therapeutic and/or prophylactic describes the amount of therapeutic and/or prophylactic that is encapsulated or otherwise associated with a lipid nanoparticle (e.g., an empty LNP or a loaded LNP) after preparation, relative to the initial amount provided. The encapsulation efficiency is desirably high (e.g., close to 100%). The encapsulation efficiency may be measured, for example, by comparing the amount of therapeutic and/or prophylactic in a solution containing the lipid nanoparticle (e.g., an empty LNP or a loaded LNP) before and after breaking up the lipid nanoparticle (e.g., an empty LNP or a loaded LNP) with one or more organic solvents or detergents. Fluorescence may be used to measure the amount of free therapeutic and/or prophylactic (e.g., RNA) in a solution.
as §1

[3] = Encapsulation efficiency (% EE), ribostar; format: physicochemical; conditions: nanoparticles, compound:DSPC:cholesterol:PEG 2 50:10:38:2 mol %
Text: as §2, with “solution. For the lipid nanoparticles (e.g., empty LNPs or loaded LNPs) described herein, the encapsulation efficiency of a therapeutic and/or prophylactic may be at least 50%, for example 50%, 55%, 60%, 65%, 70%, 75%, 80%, 85%, 90%, 91%, 92%, 93%, 94%, 95%, 96%, 97%, 98%, 99%, or 100%. In some embodiments, the encapsulation efficiency may be at least 80%. In certain embodiments, the encapsulation efficiency may be at least 90%. In some embodiments, the encapsulation efficiency of the therapeutic and/or prophylactic agent is between 80% and 100%.” for “solution.”
Nanoparticle compositions including a therapeutic and/or prophylactic can be optimized according to the selection of a compound according to Formula (I), (I-1), (A), (A-1), (A-1a), or (A-1b), the selection of additional lipids, the amount of each lipid in the lipid component, and the wt:wt ratio of the lipid component to the therapeutic and/or prophylactic. Nanoparticle compositions including DSPC as a phospholipid, cholesterol as a structural lipid, PEG 2 as a PEG lipid, and a compound according to Formula (I), (I-1), (A), (A-1), (A-1a), or (A-1b) were prepared. The ratios of the lipids were 50:10:38:2 mol % for the lipid according to Formula (I), (I-1), (A), (A-1), (A-1a), or (A-1b):DSPC:cholesterol:PEG 2. Tables 2a, 2b, and 3-5 summarize the characteristics of the formulations.
Table 4 summarizes the surface hydrophobicity of nanoparticles comprising compounds of the disclosure as determined by Generalized Polarization by Laurdan (GPL). Laurdan, a fluorescent aminonaphthalene ketone lipid, was post-inserted into the nanoparticle surface and the fluorescence spectrum of Laurdan was collected to determine the normalized Generalized Polarization (N-GP). Higher N-GP indicates a less polar surface.

[4] = Heparin-sepharose binding of nanoparticles
[5] = Surface hydrophobicity by Generalized Polarization by Laurdan (GPL); format: physicochemical; conditions: normalized Generalized Polarization by Laurdan; higher N-GP = less polar surface
Text: Nanoparticle compositions including a therapeutic and/or prophylactic can be optimized according to the selection of a compound according to Formula (I), (I-1), (A), (A-1), (A-1a), or (A-1b), the selection of additional lipids, the amount of each lipid in the lipid component, and the wt:wt ratio of the lipid component to the therapeutic and/or prophylactic. Nanoparticle compositions including DSPC as a phospholipid, cholesterol as a structural lipid, PEG 2 as a PEG lipid, and a compound according to Formula (I), (I-1), (A), (A-1), (A-1a), or (A-1b) were prepared. The ratios of the lipids were 50:10:38:2 mol % for the lipid according to Formula (I), (I-1), (A), (A-1), (A-1a), or (A-1b):DSPC:cholesterol:PEG 2.
Laurdan, a fluorescent aminonaphthalene ketone lipid, was post-inserted into the nanoparticle surface and the fluorescence spectrum of Laurdan was collected to determine the normalized Generalized Polarization (N-GP). Higher N-GP indicates a less polar surface.

[6] = Apparent LNP pKa by 2-(p-toluidino)-6-napthalene sulfonic acid (TNS) assay; format: physicochemical; conditions: pH at half of maximum fluorescence

SMILES	PDI [1]	Size (nm) [1] [nm]	Median Fluorescence Intensity, PE (serum protein ApoE)	Avg. [hEPO] mIU/mL (hEPO mRNA) [mIU/mL]	% EE (ribogreen) [2] [%]	% EE (ribostar) [3] [%]	Relative % Area Bound by LNP [4] [%]	Average N-GP [5]	LogIC50 (pKa) [6]
CCCCCCCCC(CC)OC(=O)CCCCCCCN(CCCCCCCC(=O)OC(CCCCCCCC)CCCCCCCC)CCCNC1=NC(=O)N(C)C1=O (stereo not drawn) [Compound 9, Heptadecan-9-yl 8-((3-((1-methyl-2,5-dioxo-2,5-dihydro-1H-imidazol-4-yl)amino)propyl)(8-oxo-8-(undecan-3-yloxy)octyl)amino)octanoate]	0.154	77.1	56008	5.32E+05	92.9	68.9	0		
CCCCCCCCC(CC)OC(=O)CCCCCCCN(CCCCCCCC(=O)OC(CCCCCCCC)CCCCCCCC)CCCNS(C)(=N)=O (stereo not drawn) [Compound 58, Heptadecan-9-yl 8-((3-(methylsulfonoamidimidamido)propyl)(8-oxo-8-(undecan-3-yloxy)octyl)amino)octanoate]	0.142	86.9		9.03E+04	98.6		47.35	0.493	7.05
CCCCCCCCC(CC)OC(=O)CCCCCCCN(CCCCCCCC(=O)OC(CCCCCCCC)CCCCCCCC)CCCNS(=O)(=O)NC (stereo not drawn) [Compound 59, Heptadecan-9-yl 8-((3-((N-methylsulfamoyl)amino)propyl)(8-oxo-8-(undecan-3-yloxy)octyl)amino)octanoate]	0.16	72.7		2.49E+05	98.3		0	0.762	6.74
CCCCCCCCC(CC)OC(=O)CCCCCCCN(CCCCCCCC(=O)OC(CCCCCCCC)CCCCCCCC)CCCNC(=S)C1(C)CC1 (stereo not drawn) [Compound 61, Heptadecan-9-yl 8-((3-(1-methylcyclopropane-1-carbothioamido)propyl)(8-oxo-8-(undecan-3-yloxy)octyl)amino)octanoate]	0.375	79.6		1.52E+03	49.1		1.73	0.900	5.95
CCCCCCCCC(CC)OC(=O)CCCCCCCN(CCCCCCCC(=O)OC(CCCCCCCC)CCCCCCCC)CCCNC(=O)c1ccc2c(c1)B(O)OC2 (stereo not drawn) [Compound 62, Heptadecan-9-yl 8-((3-(1-hydroxy-1,3-dihydrobenzo[c][1,2]oxaborole-6-carboxamido)propyl)(8-oxo-8-(undecan-3-yloxy)octyl)amino)octanoate]	0.233	124.3		1.60E+05	28.3		3.99	0.890	6.80
CCCCCCCCC(CC)OC(=O)CCCCCCCN(CCCCCCCC(=O)OC(CCCCCCCC)CCCCCCCC)CCCNS(=O)(=O)CCOCc1ccccc1 (stereo not drawn) [Compound 63, Heptadecan-9-yl 8-((3-((2-(benzyloxy)ethyl)sulfonamido)propyl)(8-oxo-8-(undecan-3-yloxy)octyl)amino)octanoate]	0.273	126.4		1.90E+05	37.7		6.25	0.866	6.41
CCCCCCCCC(CC)OC(=O)CCCCCCCN(CCCCCCCC(=O)OC(CCCCCCCC)CCCCCCCC)CCCNS(C)(=O)=O (stereo not drawn) [Compound 65, Heptadecan-9-yl 8-((3-(methylsulfonamido)propyl)(8-oxo-8-(undecan-3-yloxy)octyl)amino)octanoate]	0.155	73.2		3.64E+05	96.8		4.86	0.713	6.81
CCCCCCCCC(CC)OC(=O)CCCCCCCN(CCCCCCCC(=O)OC(CCCCCCCC)CCCCCCCC)CCCNS(=O)(=O)c1ccn(C)n1 (stereo not drawn) [Compound 68, Heptadecan-9-yl 8-((3-((1-methyl-1H-pyrazole)-3-sulfonamido)propyl)(8-oxo-8-(undecan-3-yloxy)octyl)amino)octanoate]	0.109	63.2		4.29E+05	96.6		1.12	0.822	6.71
CCCCCCCCC(CC)OC(=O)CCCCCCCN(CCCCCCCC(=O)OC(CCCCCCCC)CCCCCCCC)CCCNS(=O)(=O)c1ncc[nH]1 (stereo not drawn) [Compound 69, Heptadecan-9-yl 8-((3-(1H-imidazole-2-sulfonamido)propyl)(8-oxo-8-(undecan-3-yloxy)octyl)amino)octanoate]	0.108	66.8		2.61E+05	97		0.93	0.812	6.56
